Measured values taken from a melting point compilation (Tetko et al.; mined from patent text by program, amines drawn as free bases though some values may be those of a salt).

Point of comparison: `O=c1[nH]c2cc(C(F)(F)F)cc3c2n(c1=O)C(P(=O)(O)O)CC3` (configuration not stated), melting point 262 °C. Against it:
- O=C(O)CCCNC(=O)c1ccccc1NC(=O)c1cccc(Cl)c1 — lower, 165 to 166 °C
- O=C(CCCl)c1ccc2c(c1)CCC2 — lower, 63.5 to 65.1 °C
- O=C1CCC(CO)N1C(=O)Nc1ccccc1 (configuration not stated) — lower, 99 to 101 °C
- OCc1c2c(nn1-c1ccc(F)cc1)CCCCC2 — lower, 177 to 178 °C
- O=C(O)CCCCCCCCCCCCCCCBr — lower, 67 to 69 °C
- O=c1[nH]nc2cc(C(c3c(F)ccc(F)c3F)S(=O)(=O)CCC(F)(F)F)c(Cl)cn12 (configuration not stated) — lower, 209 to 211 °C
- O=c1oc2ccccc2c(O)c1C(Sc1ccc(Cl)cc1)c1cc(F)ccc1F (configuration not stated) — lower, 146 to 147 °C
- CCOC(=O)C1=C(COCC(C)=O)NC(C)=C(C(=O)OC)C1c1cccc(Cl)c1Cl (configuration not stated) — lower, 117 to 119 °C
- NC(=S)Nc1ccc2ccccc2c1 — lower, 190 to 192 °C
- CON=C(C#N)C(=O)NC(=O)NCCCCCC(=O)OC — lower, 91 °C
- CCOC(=O)c1c2c(n(CC(N)=O)c1C)C(=O)C(=O)c1ccc(Br)cc1-2 — not separable, > 250 °C
- COC(=O)c1ccccc1C(=O)NC(C)(C)C#N — lower, 100 to 101 °C
- Cc1nnc(CNC(=O)CNC(=O)CN)n1-c1ccc(Cl)cc1C(=O)c1ccccc1Cl — lower, 60 to 65 °C
- OC(CNC1=NCCN1)c1cccc(Cl)c1 (configuration not stated) — lower, 108 °C
- CCCN(CCC)C(C)C(=O)Nc1cccc2c1C(=O)c1c(NC(=O)C(C)N(CCC)CCC)cccc1C2=O (configuration not stated) — lower, 129 to 130 °C
- CC(=O)c1ccc(-c2ccccc2)c(F)c1 — lower, 97 to 97.5 °C
- Cc1cc(C)c(-n2ccc3c(N)n[nH]c(=O)c32)c(C)c1 — higher, 290 to 292 °C
- COc1cc(COc2cccc3c2CN(C2CCC(=O)NC2=O)C3=O)ccc1OCCN(C)C (configuration not stated) — lower, 190 to 192 °C
- CCCCCCCCCCCCCCCCCCSCC(CO)C(C)C (configuration not stated) — lower, 29 °C
- Cc1c(Cl)cccc1N=C1NCCN1C(=O)c1ccc(C#N)cc1 — lower, 224 to 228 °C
- N#Cc1ccc2c(c1)OCC21C(=O)N(Cc2ccc3c(c2)OCCO3)c2ccccc21 (configuration not stated) — lower, 181 to 183 °C
- O=C(O)c1cccc(-c2cccc3nc(Cc4cccc(C(F)(F)F)c4)oc23)c1 — lower, 175 to 176 °C
- CCNc1nc(-n2cc(C(=O)O)c(=O)c3cc(F)c(F)c(Cl)c32)c(F)cc1F — lower, 236 to 242 °C
- COc1ccc(C2=NN(C3CCN(C(C)=O)CC3)C(=O)CC2C)cc1OC (configuration not stated) — lower, 149 to 152 °C
- COC(=O)c1nc(Br)c(F)c(NC(C)=O)c1Cl — lower, 190 to 192 °C
- Cn1c2ccccc2c2nc3cccc(C=O)c3nc21 — lower, 219 to 221 °C
- O=C(O)c1ccc2c(oc3ccccc32)c1C(=O)O — not separable, 260 to 262 °C
- CCCCn1c(=O)n(CCN2CCN(c3ccccc3OC)CC2)c(=O)c2sccc21 — lower, 139 to 140 °C
- O=C(Cn1nnc2ccccc21)Nc1ccc(-n2nc(C(F)(F)F)cc2C2CC2)nc1 — lower, 189 to 192 °C
- Oc1ccc(N2CCN(CCC3C=Cc4ccccc43)CC2)cc1 (configuration not stated) — lower, 228 °C
- C=C(c1ccc2cc(OC)ccc2c1)C(O)C(=O)OC (configuration not stated) — lower, 90.6 to 92.5 °C
- O=C(NC(=S)Nc1nc(-c2ccc3c(c2)CCCC3)cs1)c1ccc(Cl)cc1 — lower, 193 to 194 °C
- CC(=O)OCC(=O)NCc1ccc(-c2csc(N)n2)s1 — lower, 149 to 150 °C
- CC(=O)c1cccc(NC(=O)c2ccc3c(c2)CC(COCc2ccccc2)O3)c1O (configuration not stated) — lower, 103 to 105 °C
- CC1(C)C(=O)Nc2cc(C(=O)Nc3ccccc3)ccc21 — lower, 205 to 206 °C
- COCC1CN(c2ccc(C3CCNCC3)cc2)C(=O)O1 (racemic) — lower, 161 to 163 °C
- O=C(O)C(O)=CC(=O)c1c(Cc2ccccc2)[nH]c2ccccc12 — lower, 165 to 167 °C
- CNC(=O)c1ccc(N2CCNCC2)c(F)c1 — lower, 174 to 193 °C
- COC(=O)c1cccc(C(=O)N(C)C)n1 — lower, 90 to 92 °C
- O[C@@H]1CNC[C@H]1Sc1ccccc1 (relative stereo) — lower, 140 to 141 °C
- CCCCCCCC(=O)C=Cc1ccc(O)c(OC)c1 — lower, 45 °C
